According to ChEMBL document CHEMBL1201862, “PubChem BioAssay data set” (2004):
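Five concentrations, 48 hours, 96-well plates. GI50 marks 50% less growth.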 Calls of active or inactive are those of the source. Cut-off read from the data, not from the text of the source: active = GI50 up to about 1.1 µM and inactive = higher.

Key:
Test in all cases: NCI anticancer screen, dose series, 48 h
IGROV-1 = tested on: IGROV-1
OVCAR-5 = tested on: OVCAR-5
LOX IMVI = tested on: LOX IMVI
UO-31 = tested on: UO-31
RXF 393 = tested on: RXF 393
UACC-257 = tested on: UACC-257
M19-MEL = tested on: M19-MEL
SF-295 = tested on: SF-295
Malme-3M = tested on: Malme-3M
SK-OV-3 = tested on: SK-OV-3
RXF 631 = tested on: RXF 631
KM12 = tested on: KM12
SNB-78 = tested on: SNB-78
A549 = tested on: A549
DMS-114 = tested on: DMS-114
NCI-H23 = tested on: NCI-H23
ACHN = tested on: ACHN
SN12C = tested on: SN12C
HCC 2998 = tested on: HCC 2998
SNB-19 = tested on: SNB-19
HT-29 = tested on: HT-29
TK-10 = tested on: TK-10
OVCAR-3 = tested on: OVCAR-3
SF-268 = tested on: SF-268
NCI-H522 = tested on: NCI-H522
HOP-62 = tested on: HOP-62
SK-MEL-5 = tested on: SK-MEL-5
OVCAR-4 = tested on: OVCAR-4
SW-620 = tested on: SW-620
DMS-273 = tested on: DMS-273
SNB-75 = tested on: SNB-75
HOP-18 = tested on: HOP-18
LXFL 529 = tested on: LXFL 529
EKVX = tested on: EKVX
SK-MEL-28 = tested on: SK-MEL-28
NCI-H226 = tested on: NCI-H226
A498 = tested on: A498
SK-MEL-2 = tested on: SK-MEL-2
786-0 = tested on: 786-0
HCT-15 = tested on: HCT-15
OVCAR-8 = tested on: OVCAR-8
HCT-116 = tested on: HCT-116
COLO 205 = tested on: COLO 205
NCI-H460 = tested on: NCI-H460
DLD-1 = tested on: DLD-1
M14 = tested on: M14
KM-20L2 = tested on: KM-20L2
K562 = tested on: K562
SF-539 = tested on: SF-539
CCRF-CEM = tested on: CCRF-CEM
UACC-62 = tested on: UACC-62
U-251 = tested on: U-251
RPMI-8226 = tested on: RPMI-8226
CAKI-1 = tested on: CAKI-1
HL-60 = tested on: HL-60
XF498 = tested on: XF498
MOLT-4 = tested on: MOLT-4
HOP-92 = tested on: HOP-92

Which GI50 (IGROV-1) does the source give for `CC(=O)OCCOCNC(=S)N/N=C(\C)c1ccco1` here?
Its GI50 is > 100 µM (inactive).

And the GI50 (OVCAR-5)?
The GI50 was > 100 µM (inactive).

What about the GI50 (LOX IMVI) of the same compound?
Its GI50 is > 100 µM (inactive).

And the GI50 (UO-31)?
The GI50 was > 100 µM (inactive).

What about the GI50 (RXF 393) of the same compound?
The GI50 was > 100 µM (inactive).

And the GI50 (UACC-257)?
Its GI50 is > 100 µM (inactive).

What about the GI50 (M19-MEL) of the same compound?
The GI50 was > 100 µM (inactive).

What about the GI50 (SF-295) of the same compound?
Its GI50 is > 100 µM (inactive).

And the GI50 (Malme-3M)?
Its GI50 is > 100 µM (inactive).

What about the GI50 (SK-OV-3) of the same compound?
The GI50 was > 100 µM (inactive).

What about the GI50 (RXF 631) of the same compound?
The GI50 was > 100 µM (inactive).

And the GI50 (KM12)?
Its GI50 is > 100 µM (inactive).

What about the GI50 (SNB-78) of the same compound?
The GI50 was > 100 µM (inactive).

And the GI50 (A549)?
The GI50 was > 100 µM (inactive).

What about the GI50 (DMS-114) of the same compound?
Its GI50 is > 100 µM (inactive).

What about the GI50 (NCI-H23) of the same compound?
The GI50 was > 100 µM (inactive).

What about the GI50 (ACHN) of the same compound?
Its GI50 is > 100 µM (inactive).

What about the GI50 (SN12C) of the same compound?
The GI50 was > 100 µM (inactive).

And the GI50 (HCC 2998)?
Its GI50 is > 100 µM (inactive).

And the GI50 (SNB-19)?
Its GI50 is > 100 µM (inactive).

And the GI50 (HT-29)?
The GI50 was > 100 µM (inactive).

And the GI50 (TK-10)?
Its GI50 is > 100 µM (inactive).

And the GI50 (OVCAR-3)?
Its GI50 is > 100 µM (inactive).

And the GI50 (SF-268)?
Its GI50 is > 100 µM (inactive).

And the GI50 (NCI-H522)?
Its GI50 is > 100 µM (inactive).

And the GI50 (HOP-62)?
The GI50 was > 100 µM (inactive).

What about the GI50 (SK-MEL-5) of the same compound?
The GI50 was > 100 µM (inactive).

And the GI50 (OVCAR-4)?
The GI50 was > 100 µM (inactive).

What about the GI50 (SW-620) of the same compound?
Its GI50 is > 100 µM (inactive).

And the GI50 (DMS-273)?
The GI50 was > 100 µM (inactive).

What about the GI50 (SNB-75) of the same compound?
The GI50 was 61 µM (inactive).

And the GI50 (HOP-18)?
The GI50 was > 100 µM (inactive).

And the GI50 (LXFL 529)?
The GI50 was > 100 µM (inactive).

What about the GI50 (EKVX) of the same compound?
Its GI50 is > 100 µM (inactive).

What about the GI50 (SK-MEL-28) of the same compound?
The GI50 was > 100 µM (inactive).

And the GI50 (NCI-H226)?
Its GI50 is 64.6 µM (inactive).

And the GI50 (A498)?
The GI50 was > 100 µM (inactive).

What about the GI50 (SK-MEL-2) of the same compound?
The GI50 was > 100 µM (inactive).

And the GI50 (786-0)?
The GI50 was > 100 µM (inactive).

What about the GI50 (HCT-15) of the same compound?
The GI50 was greater than 100 µM.

And the GI50 (OVCAR-8)?
The GI50 was > 100 µM (inactive).

What about the GI50 (HCT-116) of the same compound?
Its GI50 is > 100 µM (inactive).

What about the GI50 (COLO 205) of the same compound?
The GI50 was > 100 µM (inactive).

What about the GI50 (NCI-H460) of the same compound?
The GI50 was > 100 µM (inactive).

And the GI50 (DLD-1)?
The GI50 was > 100 µM (inactive).

And the GI50 (M14)?
The GI50 was > 100 µM (inactive).

What about the GI50 (KM-20L2) of the same compound?
Its GI50 is > 100 µM (inactive).

What about the GI50 (K562) of the same compound?
The GI50 was > 100 µM (inactive).

And the GI50 (SF-539)?
The GI50 was > 100 µM (inactive).

What about the GI50 (CCRF-CEM) of the same compound?
The GI50 was > 100 µM (inactive).

What about the GI50 (UACC-62) of the same compound?
The GI50 was > 100 µM (inactive).

And the GI50 (U-251)?
The GI50 was > 100 µM (inactive).

What does the source list for `O=C1C2=C(c3ccccc31)C(c1ccc(Cl)cc1)N1C(=O)CCSC1=N2` (stereo not given)?
GI50 (RPMI-8226): 39 µM (inactive); GI50 (IGROV-1): 98.6 µM (inactive); GI50 (OVCAR-5): > 100 µM (inactive); GI50 (UO-31): 42.9 µM (inactive); GI50 (UACC-257): > 100 µM (inactive); GI50 (CAKI-1): > 100 µM (inactive); GI50 (M19-MEL): > 100 µM (inactive); GI50 (SF-295): 99.3 µM (inactive); GI50 (Malme-3M): 89.3 µM (inactive); GI50 (SK-OV-3): > 100 µM (inactive); GI50 (RXF 631): > 100 µM (inactive); GI50 (KM12): 99.5 µM (inactive); GI50 (A549): 69.3 µM (inactive); GI50 (DMS-114): 67.6 µM (inactive); GI50 (NCI-H23): 76.7 µM (inactive); GI50 (ACHN): > 100 µM (inactive); GI50 (SN12C): 44.6 µM (inactive); GI50 (HCC 2998): > 100 µM (inactive); GI50 (SNB-19): > 100 µM (inactive); GI50 (HT-29): > 100 µM (inactive); GI50 (TK-10): > 100 µM (inactive); GI50 (HL-60): 34.8 µM (inactive); GI50 (OVCAR-3): 84.3 µM (inactive); GI50 (XF498): 41.3 µM (inactive); GI50 (SF-268): > 100 µM (inactive); GI50 (NCI-H522): 45.5 µM (inactive); GI50 (HOP-62): > 100 µM (inactive); GI50 (SK-MEL-5): 47.9 µM (inactive); GI50 (OVCAR-4): 36.1 µM (inactive); GI50 (SW-620): 63.1 µM (inactive); GI50 (DMS-273): > 100 µM (inactive); GI50 (SNB-75): 43.2 µM (inactive); GI50 (LXFL 529): 53.2 µM (inactive); GI50 (EKVX): 68.2 µM (inactive); GI50 (SK-MEL-28): > 100 µM (inactive); GI50 (NCI-H226): 51.8 µM (inactive); GI50 (A498): > 100 µM (inactive); GI50 (SK-MEL-2): > 100 µM (inactive); GI50 (786-0): > 100 µM (inactive); GI50 (HCT-15): 67.8 µM; GI50 (OVCAR-8): > 10 µM (inactive); GI50 (HCT-116): 69.2 µM (inactive); GI50 (COLO 205): > 100 µM (inactive); GI50 (DLD-1): > 100 µM (inactive); GI50 (M14): > 100 µM (inactive); GI50 (KM-20L2): > 100 µM (inactive); GI50 (MOLT-4): 41.8 µM (inactive); GI50 (HOP-92): 31.4 µM (inactive); GI50 (K562): 81.1 µM (inactive); GI50 (SF-539): > 100 µM (inactive); GI50 (CCRF-CEM): 51.1 µM (inactive); GI50 (UACC-62): 54.3 µM (inactive); GI50 (U-251): > 100 µM (inactive)
